Earlier results as cited in patent US11510960B2, “Biofilm disrupting composition for use on chronic wounds” (Whiteley Corporation Pty Ltd, priority 2016, dated 2022).

Test system: P. aeruginosa biofilm from venous leg ulcers

gentamicin
reduction in concentration in relation to the control biofilm (biofilm 24 hours post-debridement, antibiotic treatment): nine-fold | average log reduction in bacteria after antibiotic treatment (mature (pre-study) biofilm, three patients with non-healing venous leg ulcers): 4 log
